Experimental findings from ChEMBL document CHEMBL1141392, “Green tea catechins potentiate triclosan binding to enoyl-ACP reductase from Plasmodium falciparum (PfENR)” (J Med Chem, 2007) are described below.

In test [1] the target is T1, Enoyl-acyl-carrier protein reductase (Plasmodium falciparum, UniProt Q965D5).
T1 sequence (Q965D5 whole entry): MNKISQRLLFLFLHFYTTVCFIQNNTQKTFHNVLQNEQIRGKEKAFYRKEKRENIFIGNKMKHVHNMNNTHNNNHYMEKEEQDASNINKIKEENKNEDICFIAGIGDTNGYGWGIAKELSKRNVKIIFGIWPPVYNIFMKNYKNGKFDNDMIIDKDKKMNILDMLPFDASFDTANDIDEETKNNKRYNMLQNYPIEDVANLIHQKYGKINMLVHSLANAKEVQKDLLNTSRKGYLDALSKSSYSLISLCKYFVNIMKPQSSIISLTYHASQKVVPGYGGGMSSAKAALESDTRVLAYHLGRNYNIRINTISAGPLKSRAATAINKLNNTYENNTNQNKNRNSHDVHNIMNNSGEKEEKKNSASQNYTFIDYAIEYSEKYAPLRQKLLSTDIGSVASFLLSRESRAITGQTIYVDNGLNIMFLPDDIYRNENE
As to the kind of experiment: Inhibition of Plasmodium falciparum ENR using NADH substrate.

Test [2] addresses T1, Enoyl-acyl-carrier protein reductase. As to the kind of experiment: Inhibition of Plasmodium falciparum ENR using crotonyl-CoA substrate.
The target is the same in test [3]. As to the kind of experiment: Inhibition of Plasmodium falciparum ENR.
The target of test [4] is T2, Enoyl-[acyl-carrier-protein] reductase [NADH] FabI (Escherichia coli K-12, UniProt P0AEK4).
T2 sequence (P0AEK4 whole entry): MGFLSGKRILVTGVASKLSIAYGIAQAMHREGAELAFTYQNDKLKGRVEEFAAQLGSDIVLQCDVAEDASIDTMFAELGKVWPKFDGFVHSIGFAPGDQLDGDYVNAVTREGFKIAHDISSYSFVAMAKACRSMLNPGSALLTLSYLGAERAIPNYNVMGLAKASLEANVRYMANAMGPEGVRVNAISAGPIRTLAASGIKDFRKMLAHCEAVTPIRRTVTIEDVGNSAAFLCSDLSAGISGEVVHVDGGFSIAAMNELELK
Nature of the test: Inhibition of Escherichia coli ENR.

Test [5] deals with T1, Enoyl-acyl-carrier protein reductase. Nature of the test: Inhibition of Plasmodium falciparum ENR in presence of triclosan.
For test [6] the target is unchanged. As to the kind of experiment: Inhibition of Plasmodium falciparum ENR by fluorescence quenching in presence of quercetin.
Test [7] has the same target. As to the kind of experiment: Inhibition of Plasmodium falciparum ENR in presence of quercetin.
Test [8] shares this target. As to the kind of experiment: Inhibition of Plasmodium falciparum ENR in presence of ECG.
Test [9] has the same target. As to the kind of experiment: Inhibition of Plasmodium falciparum ENR in presence of EGCG.
The target is the same in test [10]. Nature of the test: Inhibition of Plasmodium falciparum ENR in presence of EGC by dilution assay.
For test [11] the target is unchanged. As to the kind of experiment: Inhibition of Plasmodium falciparum ENR in presence of ECG by dilution assay.
Test [12] shares this target. Nature of the test: Inhibition of Plasmodium falciparum ENR in presence of quercetin by dilution assay.
Test [13] has the same target. As to the kind of experiment: Inhibition of Plasmodium falciparum ENR by fluorescence quenching in presence of ECG.
Test [14] shares this target. As to the kind of experiment: Inhibition of Plasmodium falciparum ENR in presence of butein by dilution assay.
Test [15] has the same target. As to the kind of experiment: Inhibition of Plasmodium falciparum ENR by fluorescence quenching in presence of EGC.
Test [16] has the same target. As to the kind of experiment: Inhibition of Plasmodium falciparum ENR in presence of EGC.
The target is the same in test [17]. As to the kind of experiment: Inhibition of Plasmodium falciparum ENR by fluorescence quenching in presence of butein.
Test [18] has the same target. Nature of the test: Inhibition of Plasmodium falciparum ENR by fluorescence quenching in presence of EGCG.
Test [19] has the same target. Nature of the test: Inhibition of Plasmodium falciparum ENR in presence of butein.
Test [20] shares this target. As to the kind of experiment: Inhibition of Plasmodium falciparum ENR in presence of EGCG by dilution assay.

Broadly, the Ki is a dissociation constant, usually derived from enzyme kinetics or from competition with a known ligand. By IC50 is commonly meant the concentration needed to halve the response being measured. A lower IC50 goes with greater potency in that assay.

With `O=C(O[C@@H]1Cc2c(O)cc(O)cc2O[C@@H]1c1cc(O)c(O)c(O)c1)c1cc(O)c(O)c(O)c1` [EPIGALOCATECHIN GALLATE], the Ki in test [1] was determined as 186 nM; in test [2], 79 nM; in test [5], 8 nM. For the same compound, the IC50 in test [3] is 250 nM; in test [4], 15000 nM.
As to `O=c1c(O)c(-c2ccc(O)c(O)c2)oc2cc(O)cc(O)c12` [QUERCETIN], the results for the Ki in test [1], in test [2] and in test [5] were 1090 nM, 473 nM and 22 nM, respectively. Further, the IC50 was found to be 2500 nM in test [3] and 20000 nM in test [4].
As for `O=C(O[C@@H]1Cc2c(O)cc(O)cc2O[C@@H]1c1ccc(O)c(O)c1)c1cc(O)c(O)c(O)c1` [EPICATECHIN GALLATE], the figures for the inhibition constant Ki in test [1], in [2] and in test [5] were 291 nM, 102 nM and 16 nM, respectively. For the same compound, the IC50 turned out to be 500 nM in test [3] and 10000 nM in test [4].
Consider `Oc1cc(O)c2c(c1)O[C@H](c1cc(O)c(O)c(O)c1)[C@H](O)C2` [EPIGALLOCATECHIN], for which the Ki amounted to 3750 nM in test [1], 2000 nM in test [2] and 17.6 nM in test [5]. Moreover, the IC50 is 7000 nM in [3] and over 100000 nM in test [4].
Turning to `O=C(/C=C/c1ccc(O)c(O)c1)c1ccc(O)cc1O` [BUTEIN], the inhibitory constant (Ki) in test [1] was found to be 5500 nM; in [2], 2970 nM; in test [5], 14 nM. The results for the IC50 in test [3] and in [4] were 12500 nM and 30000 nM, respectively.
`Oc1cc(Cl)ccc1Oc1ccc(Cl)cc1Cl` [TRICLOSAN]: the inhibitory constant (Ki) in test [6] worked out at 30.5 nM; in test [7], 10 nM; in [8], 8 nM; in [9], 1 nM; in [10], 0.109 nM; in test [11], 0.0521 nM. Moreover, the inhibition constant (Ki) in test [12] was 0.281 nM; in test [13], 28.3 nM; in [14] it was 0.798 nM; in test [15], 52.7 nM; in test [16], 8.25 nM; in test [17] it was 71 nM. For the same compound, the Ki in test [18] came to 7.29 nM; in [19], 13.7 nM; in test [20] it was 0.0019 nM.
